Laboratory results from patent US10239925B2, “Peptides and combination of peptides for use in immunotherapy against ovarian cancer and other cancers” (IMMATICS BIOTECHNOLOGIES GMBH, priority 2015, dated 2019).

Legend:
HLA-A*02:01 = HLA-A*02:01 (Homo sapiens, UniProt P04439, D140Y/D185E/D98H/E176V/E277Q/G131W/G231S/I119V/I121R/I166T/I218V/L300P/L318F/N151K/N90K/P208A/P217A/Q86G/Q94H/R138H/R169H/T345S); experiment: MHC binding assay (UV-ligand exchange, anti-β2m ELISA, peptide exchange yield); conditions: binding to HLA-A*02:01
How it was run: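 Yield of stabilized complexes quantified via the β2m light chain in an ELISA (streptavidin capture, 100-fold diluted monomers, HRP anti-β2m 2 ug/ml at 37 °C, TMB, A450). The complexes come from UV-triggered replacement of a photocleavable ligand by the candidate peptide.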

CD8+ T cells = experiment: In vitro immunogenicity: priming of CD8+ T cells with aAPCs loaded with peptide/MHC and anti-CD28, multimer readout; format: cell-based, human; conditions: for Wells positive [%]: HLA-A*02 restricted peptides, percentage of positive wells (among evaluable); for donors: percentage of positive donors; for wells: percentage of positive wells
Procedure: In an aspect, the peptides are pre-screened for immunogenicity before being included in the warehouse. By way of example, and not limitation, the immunogenicity of the peptides included in the warehouse is determined by a method comprising in vitro T-cell priming through repeated stimulations of CD8+ T cells from healthy donors with artificial antigen presenting cells loaded with peptide/MHC complexes and anti-CD28 antibody.
FIGS. 3A to 3F show exemplary immunogenicity data: flow cytometry results after peptide-specific multimer staining. CD8+ T cells were primed using artificial APCs coated with anti-CD28 mAb and HLA-A*02 in complex with SeqID No 662 (FIG. 3A, left panel), SeqID No 663 (FIG. 3B, left panel), SeqID No 11 peptide (FIG. 3C, left panel), SeqID No 198 peptide (FIG. 3D, left panel), SeqID No 587 peptide (FIG. 3E, left panel) and SeqID No 427 peptide (FIG. 3F, left panel), respectively. After three cycles of stimulation, the detection of peptide-reactive cells was performed by 2D multimer staining with A*02/SeqID No 662 (FIG. 3A), A*02/SeqID No 663 (FIG. 3B), A*02/SeqID No 11 (FIG. 3C), A*02/SeqID No 198 (FIG. 3D), A*02/SeqID No 587 (FIG. 3E) or A*02/SeqID No 427 (FIG. 3F). Right panels (FIGS. 3A, 3B, 3C, 3D, 3E, and 3F) show control staining of cells stimulated with irrelevant A*02/peptide complexes. Viable singlet cells were gated for CD8+ lymphocytes. Boolean gates helped excluding false-positive events detected with multimers specific for different peptides. Frequencies of specific multimer+ cells among CD8+ lymphocytes are indicated.
In Vitro Immunogenicity for MHC Class I Presented Peptides
In order to obtain information regarding the immunogenicity of the TUMAPs of the present invention, the inventors performed investigations using an in vitro T-cell priming assay based on repeated stimulations of CD8+ T cells with artificial antigen presenting cells (aAPCs) loaded with peptide/MHC complexes and anti-CD28 antibody.
In Vitro Priming of CD8+ T Cells
In order to perform in vitro stimulations by artificial antigen presenting cells loaded with peptide-MHC complex (pMHC) and anti-CD28 antibody, the inventors first isolated CD8+ T cells from fresh HLA-A*02 leukapheresis products via positive selection using CD8 microbeads (Miltenyi Biotec, Bergisch-Gladbach, Germany) of healthy donors obtained from the University clinics Mannheim, Germany, after informed consent.
PBMCs and isolated CD8+ lymphocytes were incubated in T-cell medium (TCM) until use consisting of RPMI-Glutamax (Invitrogen, Karlsruhe, Germany) supplemented with 10% heat inactivated human AB serum (PAN-Biotech, Aidenbach, Germany), 100 U/ml Penicillin/100 μg/ml Streptomycin (Cambrex, Cologne, Germany), 1 mM sodium pyruvate (CC Pro, Oberdorla, Germany), 20 μg/ml Gentamycin (Cambrex). 2.5 ng/ml IL-7 (PromoCell, Heidelberg, Germany) and 10 U/ml IL-2 (Novartis Pharma, Nümberg, Germany) were also added to the TCM at this step.
Generation of pMHC/anti-CD28 coated beads, T-cell stimulations and readout was performed in a highly defined in vitro system using four different pMHC molecules per stimulation condition and 8 different pMHC molecules per readout condition.
The purified co-stimulatory mouse IgG2a anti human CD28 Ab 9.3 (Jung et al., 1987) was chemically biotinylated using Sulfo-N-hydroxysuccinimidobiotin as recommended by the manufacturer (Perbio, Bonn, Germany). Beads used were 5.6 μm diameter streptavidin coated polystyrene particles (Bangs Laboratories, Illinois, USA).
pMHC used for positive and negative control stimulations were A*0201/MLA-001 (peptide […] (SEQ ID NO. 664) from modified Melan-A/MART-1) and A*0201/DDX5-001 ([…] from DDX5, SEQ ID NO. 665), respectively.
800.000 beads/200 μl were coated in 96-well plates in the presence of 4×12.5 ng different biotin-pMHC, washed and 600 ng biotin anti-CD28 were added subsequently in a volume of 200 μl. […]

Peptide exchange (MHC class I binding score, peptide exchange yield) (HLA-A*02:01)	Substance	Wells positive [%] (CD8+ T cells)	donors (CD8+ T cells)	wells (CD8+ T cells)
“+++” (>50 = +++)	2 (SLLEADPFL; listed as Homo sapiens) [compound 2]	“+” (<20% = +)	–	–
“++++” (>75% = ++++)	3 (SLASKLTTL; listed as Homo sapiens) [compound 3]	“+” (<20% = +)	–	–
“+++” (>50 = +++)	5 (HLTEVYPEL; listed as Homo sapiens) [compound 5]	“+++” (50% - 69% = +++)	–	–
“++++” (>75% = ++++)	7 (SLVGLLLYL; listed as Homo sapiens) [compound 7]	“++” (20% - 49% = ++)	–	–
“++++” (>75% = ++++)	8 (FTLGNVVGMYL; listed as Homo sapiens) [compound 8]	“+” (<20% = +)	–	–
“+++” (>50 = +++)	11 (KIFEMLEGV; listed as Homo sapiens) [compound 11]	“+” (<20% = +)	–	–
“+++” (>50 = +++)	17 (GLLPGDRLVSV; listed as Homo sapiens) [compound 17]	“++” (20% - 49% = ++)	–	–
“++++” (>75% = ++++)	19 (FMVDNEAIYDI; listed as Homo sapiens) [compound 19]	“++” (20% - 49% = ++)	–	–
“++” (>20% = ++)	36 (YVLEDLEVTV; listed as Homo sapiens) [compound 36]	“+” (<20% = +)	–	–
“+++” (>50 = +++)	38 (FLLEDDIHVS; listed as Homo sapiens) [compound 38]	“+” (<20% = +)	–	–
“+++” (>50 = +++)	40 (TLLVKVFSV; listed as Homo sapiens) [compound 40]	“++” (20% - 49% = ++)	–	–
“+++” (>50 = +++)	48 (ALAELYEDEV; listed as Homo sapiens) [compound 48]	“+” (<20% = +)	–	–
“+++” (>50 = +++)	49 (YLPAVFEEV; listed as Homo sapiens) [compound 49]	“++” (20% - 49% = ++)	–	–
“++++” (>75% = ++++)	56 (KLYEGIPVLL; listed as Homo sapiens) [compound 56]	“+” (<20% = +)	–	–
“++++” (>75% = ++++)	60 (SLTIDGIYYV; listed as Homo sapiens) [compound 60]	“++++” (≥70% = ++++)	–	–
“++++” (>75% = ++++)	61 (FLQGYQLHL; listed as Homo sapiens) [compound 61]	“++” (20% - 49% = ++)	–	–
“+++” (>50 = +++)	79 (SLFIGEKAVLL; listed as Homo sapiens) [compound 79]	“+” (<20% = +)	–	–
“++++” (>75% = ++++)	108 (ALFPGVALLLA; listed as Homo sapiens) [compound 108]	“++” (20% - 49% = ++)	–	–
“+++” (>50 = +++)	113 (GLLPTPLFGV; listed as Homo sapiens) [compound 113]	“+” (<20% = +)	–	–

Peptide exchange (MHC class I binding score, peptide exchange yield) (HLA-A*02:01)	Substance	Wells positive [%] (CD8+ T cells)	donors (CD8+ T cells)	wells (CD8+ T cells)
“+++” (>50 = +++)	118 (KLIDNNINV; listed as Homo sapiens) [compound 118]	“+” (<20% = +)	–	–
“++” (>20% = ++)	141 (YLDFSNNRL; listed as Homo sapiens) [compound 141]	“+” (<20% = +)	–	–
“++++” (>75% = ++++)	143 (LLLDITPEI; listed as Homo sapiens) [compound 143]	“+” (<20% = +)	–	–
“+++” (>50 = +++)	150 (RLWEEGEELEL; listed as Homo sapiens) [compound 150]	“+” (<20% = +)	–	–
“+++” (>50 = +++)	152 (ILFEDIFDV; listed as Homo sapiens) [compound 152]	“++” (20% - 49% = ++)	–	–
“++” (>20% = ++)	157 (SLNDEVPEV; listed as Homo sapiens) [compound 157]	“+++” (50% - 69% = +++)	–	–
“+++” (>50 = +++)	166 (YLNHLEPPV; listed as Homo sapiens) [compound 166]	“++++” (≥70% = ++++)	–	–
“+++” (>50 = +++)	618 (VLFDSESIGIYV; listed as Homo sapiens) [compound 618]	–	–	–
“+++” (>50 = +++)	619 (ALQDRVPLA; listed as Homo sapiens) [compound 619]	–	–	–
“++++” (>75% = ++++)	620 (KLLNKIYEA; listed as Homo sapiens) [compound 620]	–	–	–
“++++” (>75% = ++++)	621 (VLMDRLPSLL; listed as Homo sapiens) [compound 621]	–	–	–
“+++” (>50 = +++)	622 (RLLGEEVVRVLQA; listed as Homo sapiens) [compound 622]	–	–	–
“+++” (>50 = +++)	623 (YLVEDIQHI; listed as Homo sapiens) [compound 623]	–	–	–
“+++” (>50 = +++)	635 (SLDSTLHAV; listed as Homo sapiens) [compound 635]	–	–	–
–	648 (LLWGNAIFL; listed as Homo sapiens) [compound 648]	–	+++ (50% - 69% = +++)	++ (20% - 49% = ++)
–	652 (TLWYRAPEV; listed as Homo sapiens) [compound 652]	–	++++ (≥70% = ++++)	+++ (50% - 69% = +++)
–	659 (ILFPDIIARA; listed as Homo sapiens) [compound 659]	–	+++ (50% - 69% = +++)	+ (<20% = +)
–	662 (KIQEILTQV; listed as Homo sapiens) [compound 662]	–	+++ (50% - 69% = +++)	+ (<20% = +)
–	663 (KIQEMQHFL; listed as Homo sapiens) [compound 663]	–	+++ (50% - 69% = +++)	+ (<20% = +)
